Measurements as given in US12337005B2, “Methods of treating thrombosis” (UNIVERSITY OF IOWA RESEARCH FOUNDATION, priority 2020, dated 2025).

Tests used:
Type in all cases: cell-based
integrin αIIbβ3 = experiment: Integrin αIIbβ3 activation (JONA binding), mouse platelets; settings: convulxin and PAR4-induced
human platelets [1] = experiment: Clot retraction, human platelet-rich plasma; settings: thrombin stimulation, ML265 50 and 100 μM, dose-dependent
Method: To measure thrombin-stimulated fibrin clot retraction PRP was treated with ML265 (50 and 100 μM) or vehicle control (DMSO) for 10 minutes. Tyrode buffer was added to test tubes, along with red blood cells, to allow visualization of the clot. This was followed by the addition of PRP. Clot formation was initiated by adding thrombin (final concentration 0.25 U/ml) to the test tubes. Photographs were taken every 15 minutes and the assay was terminated after 60 minutes at which time the clot in the vehicle-treated samples were seen to have retracted completely. Clot area was analyzed using Image J software from NIH (Bethesda, MD, USA).

human platelets [2] = experiment: ATP secretion from dense granules, human platelets; settings: stimulus-activated human platelets pretreated with ML265
Method: Platelet rich plasma (PRP) or washed platelets (2×10^8/ml) treated with vehicle (DMSO) or ML265 (50 and 100 μM) were stirred (1200 rpm) at 37° C. for 2 min in a whole blood/optical lumi-aggregometer (Chrono-log; model 700-2) before the addition of agonists (convulxin, collagen, thrombin, PAR4, TRAP (PAR1 agonist) or adenosine diphosphate [ADP]). Aggregation was measured as percent change in light transmission, where 100% refers to transmittance through the blank sample (PRP/Buffer). Platelet dense granule secretion was determined by measuring the release of ATP using luciferin-luciferase reagent. To examine the effect of ML265 on ATP secretion, washed platelets were pretreated with vehicle (DMSO) or ML265 (50 and 100 μM) for 10 minutes before stimulation with various agonists. ATP release was performed in a lumi-aggregometer (Chrono-log; model 700-2) at 37° C.

mouse platelets = experiment: Glucose uptake assay, mouse platelets; settings: mouse platelets stimulated with convulxin or thrombin
Method: Glucose uptake was determined in activated versus non-activated platelets using 10 mM ^14C-2-deoxy-glucose. Washed platelets (2×10^8/mL) treated with vehicle (DMSO) or ML265 (50 and 100 μM) were incubated in 1× Tyrode buffer and stimulated with convulxin or thrombin for 10 minutes, placed on ice and then centrifuged at 4000 rpm for 5 minutes. The pellets were washed with cold 1×PBS and solubilized in 1N NAOH. Radioactive counts were determined using a Perkin Elmer TriCarb 2800TR liquid scintillation counter.

Cn1c2cc([S+](C)[O-])sc2c2cnn(Cc3cccc(N)c3)c(=O)c21 (stereo not shown) [ML265, 6-[(3-aminophenyl)methyl]-4,6-dihydro-4-methyl-2-(methylsulfinyl)-5H-thieno[2′,3′:4,5]pyrrolo[2,3-d]pyridazine-5-one]
activation of αIIbβ3 (JONA binding) (integrin αIIbβ3): decreased
clot retraction (human platelets [1]): significantly inhibited
dense-granule secretion (ATP release) (human platelets [2]): significant decrease
glucose uptake (mouse platelets): reduced
